For this assay, the target named is T1, BRD9 (Homo sapiens, UniProt Q9H8M2).
T1 sequence (Q9H8M2 1-597): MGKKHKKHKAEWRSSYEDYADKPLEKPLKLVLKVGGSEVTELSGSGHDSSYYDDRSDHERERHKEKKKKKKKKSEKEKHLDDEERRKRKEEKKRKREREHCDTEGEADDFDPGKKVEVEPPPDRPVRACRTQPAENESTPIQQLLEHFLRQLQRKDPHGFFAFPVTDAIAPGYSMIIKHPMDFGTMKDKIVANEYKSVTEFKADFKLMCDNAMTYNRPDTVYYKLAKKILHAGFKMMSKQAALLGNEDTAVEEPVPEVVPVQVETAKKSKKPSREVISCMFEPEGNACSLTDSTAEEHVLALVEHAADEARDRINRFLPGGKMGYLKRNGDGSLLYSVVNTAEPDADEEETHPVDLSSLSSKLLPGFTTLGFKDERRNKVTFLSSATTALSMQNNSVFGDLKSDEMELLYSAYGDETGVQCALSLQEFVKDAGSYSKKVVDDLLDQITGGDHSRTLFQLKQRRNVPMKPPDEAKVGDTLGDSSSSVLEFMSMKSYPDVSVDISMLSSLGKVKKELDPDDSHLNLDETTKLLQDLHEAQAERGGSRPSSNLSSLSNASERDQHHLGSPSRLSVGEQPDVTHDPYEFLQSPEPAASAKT
In words: BRD9 HiBiT degradation assay in 293T.166 (HEK293T.166) cells. Type of assay: cell-based. Also noted: endogenously expressing BRD9 with HiBiT fusion tag via CRISPR; host or cells: HEK293T.166 (293T.166, BRD9-HiBiT HEK293, LgBiT by lentivirus). How it is done: Selected compounds were tested in a BRD9 degradation assay using the HiBit Method.
Dulbecco's modified Eagle medium (DMEM) without phenol red and fetal bovine serum (FBS) were purchased from Gibco (Grand Island, NY, USA). Nano-Glo® HiBiT Lytic Assay System was purchased from Promega (Madison, WI, USA). 293T.166 (BRD9-HiBiT) cell line, endogenously expressing BRD9 with HiBiT fusion tag via CRISPR and ectopically expressing LgBiT tag, was purchased from Promega (Madison, WI, USA). 293T.167 (BRD7-HiBiT) cell line, endogenously expressing BRD7 with HiBiT fusion tag via CRISPR and ectopically expressing LgBiT tag, was purchased from Promega (Madison, WI, USA). 293T.92 (BRD4-HiBiT) cell line, endogenously expressing BRD4 with HiBiT fusion tag via CRISPR and ectopically expressing LgBiT tag, was generated in-house. Cell culture flasks and 384-well microplates were acquired from VWR (Radnor, PA, USA).
BRD9 degradation was determined based on quantification of luminescent signal using Nano-Glo® HiBiT Lytic Assay kit. Test compounds were added to the 384-well plate from a top concentration of 10 μM with 11 points, half log titration in duplicates. 293T.166 cells were added into 384-well plates at a cell density of 10,000 cells per well. The plates were kept at 37° C. with 5% CO2 for 2 hours. BRD7 and BRD4 degradation was similarly determined with 293T.167 cells and 293T.92 cells, respectively. The cells treated in the absence of the test compound were the negative control and the cells without Nano-Glo® HiBiT Lytic reagent were the positive control. After 2-hour incubation, Nano-Glo® HiBiT Lytic Assay reagents were added to the cells. Luminescence was acquired on EnVision® Multilabel Reader (Catalog No. 2104-0010, Perkin Elmer Inc., Dumfries, VA, USA).
This assay evaluates the degradation of BRD9 induced by treatment with Compound 1 or Compound 2 as measured by luminescence using Nano-Glo® HiBiT Lytic Assay System in HEK293 cells CRISPR-edited to endogenously express HiBiT tagged BRD9 and exogenously express LgBiT protein.
Nano-Glo® HiBiT Lytic Assay System was purchased from Promega (Catalog No. N3050, Madison, WI, USA). BRD9-HiBiT HEK293 cells were purchased from Promega (Catalog No. CS302348, Madison, WI, USA). The cells were maintained in Dulbecco's modified Eagle medium (DMEM) without phenol red (Catalog No. 12430112, ThermoFisher Scientific, Waltham, MA, USA) supplemented with 10% fetal bovine serum (FBS) (Catalog No. 16000-044, Gibco, Grand Island, NY, USA) at 37° C. in an atmosphere of 5% CO2 in air. The HiBiT polypeptide tag was introduced into the C-terminus of the endogenous BRD9 locus by CRISPR-Cas9 and the LgBiT protein was introduced via Lentiviral infection to produce the modified HEK293T.166 cell line. The HiBiT polypeptide and LgBiT protein allow reconstitution of NanoBiT enzyme in the cells. The Nano-Glo® HiBiT Lytic Substrate was then added and activated by the NanoBiT enzyme following cell lysis to produce a luminescent signal that is directly proportional to the amount of HiBiT-tagged BRD9.
The HEK293T.166 cells were routinely sub-cultured to maintain cell density between 30-80% confluence, not to exceed 20 passages. Cells were washed with PBS pH 7.4 (Catalog No. 10010049, ThermoFisher Scientific, Waltham, MA, USA), trypsinized for 5 minutes at 37° C., and resuspended in fresh growth media without phenol red. An aliquot was diluted 2× with Trypan Blue solution 0.4% (Catalog No. 15250061, ThermoFisher Scientific, Waltham, MA, USA) and cell count determined. Cell concentration was adjusted with growth media without phenol red to 3.3×10^5 cells/mL.
Compound 1 or Compound 2 was prepared by dissolving neat compounds in DMSO (Catalog No. D8418, Sigma-Aldrich, Inc., St. Louis, MO, USA) to generate 10 mM stock solution and stored at −20° C. […]
(In general: With HiBiT, luminescence reflects the tagged protein that the partner subunit can reach.)

Read-outs that look alike come from different tables or passages of the source.

For orientation: DC50 means the concentration giving 50% degradation. As a reminder, the Emax is the greatest response seen or fitted, relative to the assay's reference.

As for `COc1cc(-c2cn(C)c(=O)c(C)c2C)cc(OC)c1CN1CC[C@H](N2CCN(c3ccc(N[C@H]4CCC(=O)NC4=O)cc3F)CC2)C(F)(F)C1` [Compound 1, (S)-3-((4-(4-((S)-1-(2,6-dimethoxy-4-(1,4,5-trimethyl-6-oxo-1,6-dihydropyridin-3-yl)benzyl)-3,3-difluoropiperidin-4-yl)piperazin-1-yl)-3-fluorophenyl)amino)-piperidine-2,6-dione], the “% BRD9 Remaining Relative to Vehicle Control at 2 hr, Mean” value by setting is: (0.010 nM) 92.3%; (0.032 nM) 96.4%; (0.100 nM) 91.6%; (0.315 nM) 86.4%; (0.997 nM) 76.7%; (3.15 nM) 51.6%. Besides, the “% BRD9 Remaining Relative to Vehicle Control at 2 hr, Mean” value is, setting by setting: (10.0 nM) 21.7%; (31.7 nM) 7.9%; (100 nM) 5.0%; (316 nM) 5.7%; (999 nM) 4.8%. Also, the DC50 is less than 100 nM (293T.166 cells, 2.0 hours, read-out: HiBiT-Degradation 293T.166 BRD9 2.0 hours (DC50)) and 2 to 75 nM (summary statement, read-out: DC50 against BRD9). Further, the Emax (BRD9-HiBiT, 293T.166 cells, 2 hours, read-out: Mean Emax (%) ± SD) is 4.14 ± 1.15%. In addition, the Dmax (HEK293T.166 cells, 2-hour treatment, read-out: maximal degradation of BRD9) was greater than 95%.

Values taken from patent publication US20240245677A1, “SELECTED COMPOUNDS FOR TARGETED DEGRADATION OF BRD9” (C4 THERAPEUTICS, INC., priority 2021, published 2024).
